Structures can show the parent of a compound that is named as a salt.

The assay addresses T1, Human α-thrombin (Homo sapiens, UniProt P00734).
T1 construct: Human α-thrombin; purchased Sigma Chemical Co. or Hematologic Technologies
Description: Test A: Determination of Thrombin Inhibition with a Chromogenic, Robotic Assay. To be noted: chromogenic substrate S-2366 0.30 mmol/L, α-thrombin 0.020 NIHU/mL, 40 minutes incubation at 37° C. The format is biochemical. On the procedure: Determination of Thrombin Inhibition with a Chromogenic, Robotic Assay
The thrombin inhibitor potency is measured with a chromogenic substrate method, in a Plato 3300 robotic microplate processor (Rosys AG, CH-8634 Hombrechtikon, Switzerland), using 96-well, half volume microtitre plates (Costar, Cambridge, Mass., USA; Cat No 3690). Stock solutions of test substance in DMSO (72 μL), 0.1-1 mmol/L, are diluted serially 1:3 (24+48 μL) with DMSO to obtain ten different concentrations, which are analysed as samples in the assay. 2 μL of test sample is diluted with 124 μL assay buffer, 12 μL of chromogenic substrate solution (S-2366, Chromogenix, Mölndal, Sweden) in assay buffer and finally 12 μL of α-thrombin solution (Human α-thrombin, Sigma Chemical Co. or Hematologic Technologies) in assay buffer, are added, and the samples mixed. The final assay concentrations are: test substance 0.00068-133 μmol/L, S-2366 0.30 mmol/L, α-thrombin 0.020 NIHU/mL. The linear absorbance increment during 40 minutes incubation at 37° C. is used for calculation of percentage inhibition for the test samples, as compared to blanks without inhibitor.

As for `O=C(N1CC2CC1(C(=O)NCc1cc(Cl)ccc1-n1cnnn1)C2)C1(O)CCOc2ccccc21` (racemic) [Example 64, (rac)-2-(4-Hydroxy-1-benzopyran-4-carbonyl)-2-aza-bicyclo[2.1.1]hexane-1-carboxylic acid 5-chloro-2-tetrazol-1-yl-benzylamide], 40 nM corresponded to half-maximal inhibition (IC50).
Compound `CC(C)(C)C[C@@H](N)C(=O)N1C[C@@H]2C[C@@H]2[C@H]1C(=O)NCc1cc(Cl)ccc1-n1cnnn1` [Example 18, (1S,2S,5R)-3-((R)-2-Amino-4,4-dimethyl-pentanoyl)-3-aza-bicyclo[3.1.0]hexane-2-carboxylic acid 5-chloro-2-tetrazol-1-yl-benzylamide hydrochloride] came in with a half-inhibitory concentration (IC50) of 1 nM.
With `CC(C)(C)C[C@@H](N)C(=O)N1[C@@H]2C[C@@H]2C[C@H]1C(=O)NCc1cc(Cl)ccc1-n1cnnn1` [Example 19, (1R,3S,5R)-2-((R)-2-Amino-4,4-dimethyl-pentanoyl)-2-aza-bicyclo[3.1.0]hexane-3-carboxylic acid 5-chloro-2-tetrazol-1-yl-benzylamide hydrochloride] the figure was 4 nM; with `CC(C)(C)C[C@@H](N)C(=O)N1[C@H](C(=O)NCc2cc(Cl)ccc2-n2cnnn2)C[C@@H]2C[C@@H]21` [Example 20, (1S,3S,5S)-2-((R)-2-Amino-4,4-dimethyl-pentanoyl)-2-aza-bicyclo[3.1.0]hexane-3-carboxylic acid 5-chloro-2-tetrazol-1-yl-benzylamide hydrochloride], 2 nM; with `O=C([C@H](O)C1CCCCC1)N1CC[C@@H]2C[C@@]21C(=O)NCc1cc(Cl)ccc1-n1cnnn1` [Example 27, (1S,5R)-2-((R)-2-Cyclohexyl-2-hydroxy-acetyl)-2-aza-bicyclo[3.1.0]hexane-1-carboxylic acid-5-chloro-2-tetrazol-1-yl-benzylamide], 7 nM.
Under `CC(C)(C)C[C@@H](O)C(=O)N1CC2CC1(C(=O)NCc1cc(Cl)ccc1-n1cnnn1)C2` [Example 28, 2-((R)-2-Hydroxy-4,4-dimethyl-pentanoyl)-2-aza-bicyclo[2.1.1]hexane-1-carboxylic acid 5-chloro-2-tetrazol-1-yl-benzylamide] stands 6 nM.
Under `O=C([C@H](O)Cc1ccccc1)N1CC2CC1(C(=O)NCc1cc(Cl)ccc1-n1cnnn1)C2` [Example 29, 2-((R)-2-Hydroxy-3-phenyl-propionyl)-2-aza-bicyclo[2.1.1]hexane-1-carboxylic acid 5-chloro-2-tetrazol-1-yl-benzylamide] stands 290 nM.
Consider `O=C([C@H](O)c1ccccc1)N1CC2CC1(C(=O)NCc1cc(Cl)ccc1-n1cnnn1)C2` [Example 30, 2-((R)-2-Hydroxy-2-phenyl-acetyl)-2-aza-bicyclo[2.1.1]hexane-1-carboxylic acid 5-chloro-2-tetrazol-1-yl-benzylamide], for which the IC50 is 47 nM.
The compound `CC(C)(C1CC1)C(O)C(=O)N1[C@H](C(=O)NCc2cc(Cl)ccc2-n2cnnn2)C[C@@H]2C[C@@H]21` (stereo partly drawn) [Example 33, (1S,3S,5S)-2-(3-Cyclopropyl-2-hydroxy-3-methyl-butyryl)-2-aza-bicyclo[3.1.0]hexane-3-carboxylic acid 5-chloro-2-tetrazol-1-yl-benzylamide] returned a half-maximal inhibitory concentration (IC50) of 10 nM.
Under `O=C(NCc1cc(Cl)ccc1-n1cnnn1)[C@@H]1[C@H]2C[C@H]2CN1C(=O)[C@H](O)c1cc(Cl)cc(OC(F)F)c1` [Example 36, (1S,2S,5R)-3-[2-((R)-3-Chloro-5-difluoromethoxy-phenyl)-2-hydroxy-acetyl]-3-aza-bicyclo[3.1.0]hexane-2-carboxylic acid 5-chloro-2-tetrazol-1-yl-benzylamide] stands 9 nM.
With `O=C(NCc1cc(Cl)ccc1-n1cnnn1)[C@@H]1C[C@@H]2C[C@@H]2N1C(=O)[C@H](O)c1cc(Cl)cc(OC(F)F)c1` [Example 37, (1S,3S,5S)-2-[(R)-2-(3-Chloro-5-difluoromethoxy-phenyl)-2-hydroxy-acetyl]-2-aza-bicyclo[3.1.0]hexane-3-carboxylic acid 5-chloro-2-tetrazol-1-yl-benzylamide] the figure was 4 nM.
Regarding `N[C@@H](C(=O)N1[C@H](C(=O)NCc2cc(Cl)ccc2-n2cnnn2)C[C@@H]2C[C@@H]21)c1ccccc1` [Example 43, (1S,3S,5S)-2-((R)-2-Amino-2-phenyl-acetyl)-2-aza-bicyclo[3.1.0]hexane-3-carboxylic acid 5-chloro-2-tetrazol-1-yl-benzylamide], it took 5 nM to reach half-maximal inhibition (IC50).
Compound `N[C@@H](C(=O)N1[C@H](C(=O)NCc2cc(Cl)ccc2-n2cnnn2)C[C@@H]2C[C@@H]21)c1ccc(O)cc1` [Example 48, (1S,3S,5S)-2-[(R)-2-Amino-2-(4-hydroxy-phenyl)-acetyl]-2-aza-bicyclo[3.1.0]hexane-3-carboxylic acid 5-chloro-2-tetrazol-1-yl-benzylamide hydrochloride] yielded a concentration for half-maximal inhibition (IC50) of 22 nM.
With `N[C@H](CO)C(=O)N1[C@H](C(=O)NCc2cc(Cl)ccc2-n2cnnn2)C[C@@H]2C[C@@H]21` [Example 49, (1S,3S,5S)-2-((R)-2-Amino-3-hydroxy-propionyl)-2-aza-bicyclo[3.1.0]hexane-3-carboxylic acid 5-chloro-2-tetrazol-1-yl-benzylamide hydrochloride] the figure was 450 nM; with `N[C@H](CO)C(=O)N1[C@@H]2C[C@@H]2C[C@H]1C(=O)NCc1cc(Cl)ccc1-n1cnnn1` [Example 50, (1R,3S,5R)-2-((R)-2-Amino-3-hydroxy-propionyl)-2-aza-bicyclo[3.1.0]hexane-3-carboxylic acid 5-chloro-2-tetrazol-1-yl-benzylamide hydrochloride], 2500 nM.
Take `O=C(NCc1cc(Cl)ccc1-n1cnnn1)[C@@H]1C[C@@H]2C[C@@H]2N1C(=O)C(O)Cn1cncn1` (some centres unmarked) [Example 51]: the midpoint of inhibition, the IC50, lay at 420 nM.
With `O=C(NCc1cc(Cl)ccc1-n1cnnn1)[C@@H]1[C@H]2C[C@H]2CN1C(=O)C(O)Cn1cncn1` (stereo partly drawn) [Example 52, (1S,2S,5R)-3-(2-Hydroxy-3-1,2,4-triazol-1-yl-propionyl)-3-aza-bicyclo[3.1.0]hexane-2-carboxylic acid 5-chloro-2-tetrazol-1-yl-benzylamide] the figure was 570 nM; with `CC(C)(C)OC[C@@H](N)C(=O)N1[C@H](C(=O)NCc2cc(Cl)ccc2-n2cnnn2)C[C@@H]2C[C@@H]21` [Example 53, (1S,3S,5S)-2-((R)-2-Amino-3-tert-butoxy-propionyl)-2-aza-bicyclo[3.1.0]hexane-3-carboxylic acid 5-chloro-2-tetrazol-1-yl-benzylamide acetate], 5 nM.
In the case of `CC(C)(C)OC[C@@H](N)C(=O)N1C[C@@H]2C[C@@H]2[C@H]1C(=O)NCc1cc(Cl)ccc1-n1cnnn1` [Example 54, (1S,2S,5R)-3-((R)-2-Amino-3-tert-butoxy-propionyl)-3-aza-bicyclo[3.1.0]hexane-2-carboxylic acid 5-chloro-2-tetrazol-1-yl-benzylamide acetate], the concentration for half-maximal inhibition (IC50) was 6 nM.
`O=C(NCc1cc(Cl)ccc1-n1cnnn1)[C@@H]1[C@H]2C[C@H]2CN1C(=O)[C@H](O)c1cccc(Cl)c1` [Example 57, (1S,2S,5R)-3-[(R)-2-(3-Chloro-phenyl)-2-hydroxy-acetyl]-3-aza-bicyclo[3.1.0]hexane-2-carboxylic acid 5-chloro-2-tetrazol-1-yl-benzylamide] had a half-inhibitory concentration (IC50) of 3 nM.

The IC50 is the concentration that inhibits the measured activity by half. High values mean weaker potency in that assay, low ones greater potency in that assay.
